Results as given in patent US8173600B2, “Caspase-2 inhibitors and their biological applications” (Chiesi Farmaceutici S.p.A., priority 2004, dated 2012).
Read-outs that look alike come from different tables or passages of the source. Peptide text beside a SMILES is read from it. * marks the point of attachment. X1 = COC(=O)C[C@H](N*)C(=O)COc1c(F)cccc1F; Quinaldoyl = O=C(c1ccc2ccccc2n1)*

Tests used:
[1] = test system: non-ischemic rats; settings: rat, in vivo
Experimental: The selective loss of vulnerable cells and Qco-VDVAD-dfp(SEQ ID NO:1)'s effects (intracerebroventricular (ICV) administrated) have been evaluated at 72 h. Rats were sacrificed and brain fixed by trans-cardiac perfusion with paraformaldehyde. Frontal brain slices (25 μm) were strained by Cresyl-Violet or co-stained by Hoechst 33342 and Fluorojade B to assess cell death in the hippocampus and in the cortex. Cresyl-Violet is a pink-red dye that labels cytoplamic body Nissl (endoplasmic reticulum structures) and nuclei in living cells thus resulting in pale or absence of staining in dying cells. Fluoro JadeB (green fluorescence) intake is possible only in cells which have permeable plasma membrane, thus more caracteristic of dying cells. Hoechst 33342 (blue fluorescence) label nuclei all all cells and allows to appreciate nuclear morphology changes during cell death.
Cells were counted at the level of canula, as well as 650 μm and 780 μm after the cannula (antero-posterior axis) in the left brain hemisphere. Cells are counted in three successives slices at such levels in the hippocampus (CA1, CA3, girus dentus) and cortex. Cresyl-Violet stained slices were observed under white light (Nikon Eclipse E 800M microscope equipped with ×40 et ×20 objectives and LEICA IM50 software). […]

[2] = test system: 32 others related-proteases or enzymes involved in signal transduction and neuronal metabolism, nitric oxide pathway or prostanglandin metabolism; settings: 1 μM, n=2
[3] = test system: global cerebral ischemia (4VO); settings: icv, 72 h post-ischemia
Experimental: Global cerebral ischemia was induced by four-vessel occlusion (4VO) according a Pulsinelli's derived method (Pulsinelli et al., 1982; Pulsinelli and Buchman, 1988) in young-adult rats (males Wistar aged of 10-12 weeks, 320 g+/−10 g; Janvier). The first day, head of anesthetised rats was positionned in stereotaxic ear bars and tilted down at approximatively 30° to the horizontal. After a midline incision at the level of cervical spine, both vertebral arteries were exposed under microscope and then coagulated by electocautery needle through the alar foramina at the level of first cervical vertebra. Both common carotides were then exposed 24 h later and clamped for 20-30 min (rats fell in the coma when electrocautherisation of both vertebral arteries have been well performed). Carotid arteries were then declamped to allow blood flow reperfusion. […] Rats were let in their cage with waer et food ad libitum.
Rats were sacrificed and brain fixed by trans-cardiac perfusion with paraformaldehyde. Frontal brain slices (25 μm) were strained by Cresyl-Violet or co-stained by Hoechst 33342 and Fluorojade B to assess cell death in the hippocampus and in the cortex. […] Fluoro JadeB (green fluorescence) intake is possible only in cells which have permeable plasma membrane, thus more caracteristic of dying cells. Hoechst 33342 (blue fluorescence) label nuclei all all cells and allows to appreciate nuclear morphology changes during cell death.
Cells were counted at the level of canula, as well as 650 μm and 780 μm after the cannula (antero-posterior axis) in the left brain hemisphere. Cells are counted in three successives slices at such levels in the hippocampus (CA1, CA3, girus dentus) and cortex. […] Both Fluoro Jade B and Hoechst stained slices were observed under a Leica DMIRB inverted fluorescence microscope equiped with ×40 objective and LEICA IM1000/Qfluorobase software (BP 340-80 excitation filter combined with LP 425 emission filter for Hoechst; BP 480/40 excitation filter combined with BP 515-560 emission filter for Fluoro Jade B).

[4] = biological target: caspase-2 (Rattus norvegicus, UniProt P55215); settings: 5 mg/kg i.p., sacrificed at 24 hrs, brain homogenates
Experimental: Brain hemispheres were lysed in 10 mM Hepes, 5 mM MgCl2, 42 mM KCl, 1 mM DTT, 0.5% CHAPS supplemented by complete protease inhibitors cocktail (Roche, Meylan, France) by using a manual potter on ice. Homogenates were centrifuged at 10000 g/4° C. for 10 min before keeping surnageant. Protein concentration was determined using BCA test. Proteins (50 μg) were separated on 12.5% polyacrylamide gels and transferred to PVDF membranes (Amersham). […] The monoclonal anti-mouse caspase-2 antibody (52 kDa; 11B4, Alexis Biochemicals) was used at a 1:1000 dilution; actin (42 kDa; Sigma; antibody diluted 1:5000) is used as an equal loading control.
Caspase-2 activity (100 μg protein brain sample) was assessed in 100 μl assay buffer (50 mM HEPES, pH 7.4, 100 mM NaCl, 0.1% CHAPS, 10 mM DTT, 1 mM EDTA, 10% glycerol). The cleavage of 50 μM VDVAD(SEQ ID NO:9)-AMC by recombinant caspase-2 was measured after 2 h at 37° C. on a fluorescence microplate reader by monitoring the fluorescence emission at 510 nm upon excitation at 405 nm.
Animals were sacrified at 24 hrs. Brain homogenates were subjected to caspase-2 activity assay and western blot analysis. IL: ipsilateral injured hemisphere, CL: contralateral unlesionned hemisphere.

[5] = test system: primary cortical neurons
Experimental: Primary cortical neurons were cultured from E14 SWISS mice embryos (Janvier). Mice were sacrificed by cervical dislocation and embryos were removed by caesarean. Cerebral cortices were extracted and tissues mechanically triturated 15 times in L15 medium (Gibco BRL) by using 1000 μl tips (Eppendorf), then debris were removed, and the cell suspension was centrifuged at 850 rpm for 10 min. […]
5.1.3 Apoptosis assays. Analysis was performed on previously stained adherent neurons by fluorescence microscopy (FM) (DM IRB inverted fluorescence microscope, Leica, Rueil-malmaison, France) equipped with a 100 W mercury short arc lamp and a X 40 N PLAN L objective or a water immersion X 100 N PLAN objective. Usually, quantitative studies were performed by both FM on approximately 200-600 cells/field by scoring 5-10 random-selected fields per experiment and flow cytometry (FC) for higher sample throughput. […] Activated caspase-2 was detected using specific FAM-conjugated peptides (called FLICA: CaspaTag™ fluorescein Caspase Activity Kits, Q-Biogen, Illkirch, France; ApoFluor™ Caspase Detection Kits, MP BioMedicals): FAM-VDVAD (SEQ ID NO:9)-fmk. Viability loss was assessed by 7-AAD (Sigma) incorporation.

[6] = after freeze/thawing of aqueous solution
Source text: Stability was followed throughout 7 days at RT or after freeze/thawing of aqueous solution comprising various 10-100% of excipients by using HPLC (Varian ProStar 410 equipped of Nucleosile C18 (8 μm, 3.9×150 mm) with detection at 214 nm).

[7] = test system: global cerebral ischemia (4VO); settings: 4VO ischemic treated rats versus untreated rats
Experimental: Corporal temperature was measured during churgical procedure at day 1 (from anesthesia to stepl (vertebral electrocauterisation and cannula putting up) and step 2 (coratid isolation) of chirurgical procedure during. Corporal temperature was also measured 0, 10, 20 minutes after the beginning of ischemia, at day 2. Temperature was measured 24, 48, 72 H post-ischemia and before final anesthesia for perfusion at day 5. Behavioural studies (feeding, spontaneous activity and reactivity) were performed and evaluated by scoring.
Feeding: observation of stomacal contains at day 5
If refeeding=1; If no refeeding=0
Vivacity=1; More or less vivacious=0.5; No or poor vivacity=0.
Reactivity: animal are sensitive and reactive to noise and move to the origin of the noise.
If curious=1; If relatively curious=0.5; If not very curious=0.

[8] = test system: neonatal ischemic brain injury

caspase-2, sequence (P55215 whole entry): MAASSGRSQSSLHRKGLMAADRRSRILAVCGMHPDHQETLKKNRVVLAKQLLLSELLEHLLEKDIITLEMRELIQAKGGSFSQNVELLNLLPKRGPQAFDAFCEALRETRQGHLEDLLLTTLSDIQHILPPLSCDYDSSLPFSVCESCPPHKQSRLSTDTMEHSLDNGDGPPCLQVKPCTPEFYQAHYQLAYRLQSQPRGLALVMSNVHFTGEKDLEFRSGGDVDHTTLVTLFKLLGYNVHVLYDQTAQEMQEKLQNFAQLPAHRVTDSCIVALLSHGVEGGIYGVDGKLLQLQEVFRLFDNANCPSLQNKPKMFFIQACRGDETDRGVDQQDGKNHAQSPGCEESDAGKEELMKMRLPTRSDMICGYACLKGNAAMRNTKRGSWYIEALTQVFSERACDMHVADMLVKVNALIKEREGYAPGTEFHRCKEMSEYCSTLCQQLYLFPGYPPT

SMILES: COC(=O)C[C@H](NC(=O)[C@H](C)NC(=O)[C@@H](NC(=O)[C@H](CC(=O)OC)NC(=O)[C@@H](NC(=O)c1ccc2ccccc2n1)C(C)C)C(C)C)C(=O)COc1c(F)cccc1F [Qco-VDVAD-dfp, 2-Quinolinylcarbonyl-L-Valinyl-L-Aspartyl (methyl ester)-L-Valinyl-L-Alanyl-L-Aspartyl (methyl ester) 2,6-difluorophenyl ester] (Quinaldoyl-VD(OMe)VA-X1)
- cell death in hippocampus or cortex of non-ischemic rats [1]: < 10%
- topical toxicity [1]: not topically tokic
- cross reactivity against 32 other related proteases or enzymes [2]: no cross reactivity
- Cresyl-violet staining intensity in CA1 [3]: partially restored
- abnormal nuclei in CA1 (Hoechst) ([3]; versus ischemic rats): less abnormal nuclei
- cells incorporating Fluorojade B in CA1 ([3]; ischemic rats 50-60%): 10-20%
- caspase-2 activity in brain of ischemic rat pups [4]: inhibited caspase-2 activity
- caspase-2 processing in brain of ischemic rat pups (western blot) [4]: inhibited caspase-2 activity as well as caspase-2 processing
- caspase-2 activity in serum-deprived cortical neurons ([5]; 24 h serum deprivation): prevents caspase-2 activity
- cell permeance ([5]; inferred from prevention of caspase-2 activity in cortical neuron cultures): cell-permeant
- degradation after freeze/thawing (HPLC) [6]: No degradation
- general behaviour scoring (feeding, spontaneous activity, reactivity) [7]: better scoring
- infarct volume (%), mean ([8]; 0.1 mg/kg i.p. 1 h after MCAO, 48 hrs, control 22.64±1.6%): 9.95±2.8%
- reduction in infarct volume ([8]; 0.1 mg/kg i.p. single dose 1 h after MCAO / ischemic onset, 48 hrs, n=19): 44%
- infarct volume of the four animals with intermediate protection ([8]; 5 mg/kg i.p. before ischemic onset, 4 of 12 animals): 16.5±1.32%
- infarct volume, median of the eight animals with complete protection or very marked smaller infarct ([8]; 5 mg/kg i.p. before ischemic onset, 8 of 12 animals): 0.5%
- infarct volume (% damage of ipsilateral hemisphere), mean ([8]; 5 mg/kg i.p. before ischemic onset, 48 hrs, control 22.1±1.4%): 5.7±2.3%
- infarct volume, median ([8]; 5 mg/kg i.p. before ischemic onset, all 12 animals, control median=21): 0.5
- reduction in infarct volume ([8]; 5 mg/kg i.p. single dose 5-15 min before ischemic onset, 48 hrs, n=12): 74%
- terminal transferase dUTP nick end labeling (TUNEL) ([8]; ipsilateral cortex of treated animals): significantly decreased
